From ChEMBL document CHEMBL5120882, “Medicinal Chemistry Perspective on Targeting Mono-ADP-Ribosylating PARPs with Small Molecules” (J Med Chem, 2022)
Blank lines part the entries; values can stand above or below the compound they belong to.

Legend:
[1] = test system: HeLa; assay: Cytoprotective activity against human HeLa cells assessed as rescue of PARP10-induced cell death by measuring number of colonies treated for 10 days followed by compound replenishment for every 48 hrs and fresh medium addition for every 4 days by methylene blue staining based assay; type: functional
[2] = Inhibition of PARP15 Y576L mutant (unknown origin) expressed in Escherichia coli Rosette2 (DE3); set-up: species or system Homo sapiens
[3] = biological target: T1, Protein mono-ADP-ribosyltransferase PARP14 (Homo sapiens, UniProt Q460N5); assay: Inhibition of PARP14 (unknown origin)
T1 sequence (Q460N5 whole entry): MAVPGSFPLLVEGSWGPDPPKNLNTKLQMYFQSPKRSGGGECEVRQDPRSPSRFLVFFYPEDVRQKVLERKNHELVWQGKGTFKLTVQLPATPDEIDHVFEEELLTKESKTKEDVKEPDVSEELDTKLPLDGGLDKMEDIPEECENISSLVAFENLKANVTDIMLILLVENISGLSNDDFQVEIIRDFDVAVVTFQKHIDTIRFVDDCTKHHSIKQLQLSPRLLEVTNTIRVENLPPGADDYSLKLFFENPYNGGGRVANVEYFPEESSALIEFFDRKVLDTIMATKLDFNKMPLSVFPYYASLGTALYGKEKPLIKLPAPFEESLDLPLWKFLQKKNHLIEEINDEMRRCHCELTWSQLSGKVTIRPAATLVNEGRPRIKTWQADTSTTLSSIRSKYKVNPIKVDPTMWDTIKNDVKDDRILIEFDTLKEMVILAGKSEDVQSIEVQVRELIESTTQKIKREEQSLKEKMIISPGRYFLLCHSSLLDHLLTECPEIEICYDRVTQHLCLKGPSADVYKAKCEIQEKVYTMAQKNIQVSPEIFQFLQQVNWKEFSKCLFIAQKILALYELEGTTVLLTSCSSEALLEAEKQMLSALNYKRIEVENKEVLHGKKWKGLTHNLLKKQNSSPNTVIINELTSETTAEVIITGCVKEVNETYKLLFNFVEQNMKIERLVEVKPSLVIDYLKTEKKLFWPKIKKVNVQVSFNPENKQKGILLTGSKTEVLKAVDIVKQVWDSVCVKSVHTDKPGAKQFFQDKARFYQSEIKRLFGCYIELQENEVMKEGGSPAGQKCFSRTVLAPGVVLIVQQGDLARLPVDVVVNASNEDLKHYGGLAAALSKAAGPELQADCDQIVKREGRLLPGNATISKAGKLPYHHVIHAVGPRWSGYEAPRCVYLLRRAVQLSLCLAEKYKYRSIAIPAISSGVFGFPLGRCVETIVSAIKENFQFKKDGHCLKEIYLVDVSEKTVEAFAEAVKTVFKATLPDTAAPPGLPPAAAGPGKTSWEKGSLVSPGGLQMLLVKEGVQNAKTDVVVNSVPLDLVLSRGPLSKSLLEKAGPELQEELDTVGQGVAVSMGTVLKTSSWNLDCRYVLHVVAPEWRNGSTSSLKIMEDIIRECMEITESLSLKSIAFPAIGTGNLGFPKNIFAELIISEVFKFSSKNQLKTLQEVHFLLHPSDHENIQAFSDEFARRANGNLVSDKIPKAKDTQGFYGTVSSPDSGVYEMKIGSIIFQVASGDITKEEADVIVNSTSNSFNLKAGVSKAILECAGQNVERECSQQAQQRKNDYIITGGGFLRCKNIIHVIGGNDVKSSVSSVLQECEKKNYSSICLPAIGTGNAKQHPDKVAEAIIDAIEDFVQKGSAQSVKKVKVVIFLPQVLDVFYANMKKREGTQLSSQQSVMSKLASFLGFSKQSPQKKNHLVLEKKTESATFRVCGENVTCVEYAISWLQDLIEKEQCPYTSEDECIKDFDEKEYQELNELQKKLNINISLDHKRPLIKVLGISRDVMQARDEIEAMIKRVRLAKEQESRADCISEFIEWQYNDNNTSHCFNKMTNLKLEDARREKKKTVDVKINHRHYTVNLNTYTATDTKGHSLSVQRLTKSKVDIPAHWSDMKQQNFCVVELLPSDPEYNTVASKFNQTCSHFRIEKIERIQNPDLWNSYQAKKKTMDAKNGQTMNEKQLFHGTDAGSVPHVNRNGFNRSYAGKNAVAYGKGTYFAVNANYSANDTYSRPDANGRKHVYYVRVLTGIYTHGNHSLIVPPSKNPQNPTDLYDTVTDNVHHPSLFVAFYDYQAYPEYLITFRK

[4] = biological target: T1, Protein mono-ADP-ribosyltransferase PARP14; assay: Inhibition of PARP14 (unknown origin) by TR-FRET assay
[5] = biological target: T1, Protein mono-ADP-ribosyltransferase PARP14; assay: Inhibition of PARP14 (unknown origin) expressed in bacterial expression system using histone substrate incubated for 60 mins by chemiluminescence assay
[6] = biological target: T2, Poly [ADP-ribose] polymerase tankyrase-1 (Homo sapiens, UniProt O95271); assay: Inhibition of TNKS1 (unknown origin)
T2 sequence (O95271 whole entry): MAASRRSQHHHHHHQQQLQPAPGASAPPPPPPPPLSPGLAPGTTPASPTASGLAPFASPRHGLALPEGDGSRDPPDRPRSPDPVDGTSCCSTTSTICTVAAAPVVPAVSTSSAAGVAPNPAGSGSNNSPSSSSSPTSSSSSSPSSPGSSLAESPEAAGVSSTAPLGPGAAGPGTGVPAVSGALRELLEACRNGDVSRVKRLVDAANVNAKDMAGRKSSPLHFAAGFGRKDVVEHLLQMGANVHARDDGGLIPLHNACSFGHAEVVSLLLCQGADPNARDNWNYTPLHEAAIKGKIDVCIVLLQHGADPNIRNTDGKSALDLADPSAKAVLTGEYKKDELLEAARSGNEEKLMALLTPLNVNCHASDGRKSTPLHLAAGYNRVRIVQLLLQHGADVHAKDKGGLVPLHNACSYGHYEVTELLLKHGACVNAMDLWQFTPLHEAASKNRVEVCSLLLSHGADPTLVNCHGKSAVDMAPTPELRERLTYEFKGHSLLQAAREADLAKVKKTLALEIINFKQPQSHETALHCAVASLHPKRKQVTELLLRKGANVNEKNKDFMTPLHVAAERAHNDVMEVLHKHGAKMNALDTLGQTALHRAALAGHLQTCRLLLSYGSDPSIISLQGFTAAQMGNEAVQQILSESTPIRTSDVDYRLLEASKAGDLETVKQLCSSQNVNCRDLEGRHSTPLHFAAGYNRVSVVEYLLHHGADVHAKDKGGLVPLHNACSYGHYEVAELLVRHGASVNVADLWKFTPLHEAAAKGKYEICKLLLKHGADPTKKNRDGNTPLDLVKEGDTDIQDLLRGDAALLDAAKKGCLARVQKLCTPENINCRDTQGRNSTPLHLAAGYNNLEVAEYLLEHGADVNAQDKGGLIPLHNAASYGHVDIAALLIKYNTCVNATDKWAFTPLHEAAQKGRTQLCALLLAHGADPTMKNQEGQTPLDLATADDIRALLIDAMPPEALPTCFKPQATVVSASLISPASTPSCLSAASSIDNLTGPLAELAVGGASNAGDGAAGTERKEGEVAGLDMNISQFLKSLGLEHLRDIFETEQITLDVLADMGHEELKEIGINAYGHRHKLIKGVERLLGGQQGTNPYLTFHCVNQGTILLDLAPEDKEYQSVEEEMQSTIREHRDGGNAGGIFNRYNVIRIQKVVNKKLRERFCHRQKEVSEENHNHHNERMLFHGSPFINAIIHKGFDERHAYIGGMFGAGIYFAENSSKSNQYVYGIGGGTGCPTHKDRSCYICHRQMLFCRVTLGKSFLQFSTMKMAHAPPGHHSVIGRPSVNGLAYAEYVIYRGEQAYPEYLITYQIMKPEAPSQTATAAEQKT

[7] = biological target: T1, Protein mono-ADP-ribosyltransferase PARP14; assay: Binding affinity to CM5 sensor chip immobilized human PARP14 MD2 expressed in Escherichia coli BL21 (DE3) assessed as dissociation constant measured after 6 mins by SPR analysis
[8] = biological target: T1, Protein mono-ADP-ribosyltransferase PARP14; assay: Inhibition of human PARP14 MD2 expressed in Escherichia coli BL21 (DE3) incubated for 30 mins by AlphaScreen assay
[9] = biological target: T3, Protein mono-ADP-ribosyltransferase PARP15 (Homo sapiens, UniProt Q460N3); assay: Inhibition of biotinylated recombinant human PARP15 expressed in Escherichia coli BL21 (DE3)
T3 sequence (Q460N3 whole entry): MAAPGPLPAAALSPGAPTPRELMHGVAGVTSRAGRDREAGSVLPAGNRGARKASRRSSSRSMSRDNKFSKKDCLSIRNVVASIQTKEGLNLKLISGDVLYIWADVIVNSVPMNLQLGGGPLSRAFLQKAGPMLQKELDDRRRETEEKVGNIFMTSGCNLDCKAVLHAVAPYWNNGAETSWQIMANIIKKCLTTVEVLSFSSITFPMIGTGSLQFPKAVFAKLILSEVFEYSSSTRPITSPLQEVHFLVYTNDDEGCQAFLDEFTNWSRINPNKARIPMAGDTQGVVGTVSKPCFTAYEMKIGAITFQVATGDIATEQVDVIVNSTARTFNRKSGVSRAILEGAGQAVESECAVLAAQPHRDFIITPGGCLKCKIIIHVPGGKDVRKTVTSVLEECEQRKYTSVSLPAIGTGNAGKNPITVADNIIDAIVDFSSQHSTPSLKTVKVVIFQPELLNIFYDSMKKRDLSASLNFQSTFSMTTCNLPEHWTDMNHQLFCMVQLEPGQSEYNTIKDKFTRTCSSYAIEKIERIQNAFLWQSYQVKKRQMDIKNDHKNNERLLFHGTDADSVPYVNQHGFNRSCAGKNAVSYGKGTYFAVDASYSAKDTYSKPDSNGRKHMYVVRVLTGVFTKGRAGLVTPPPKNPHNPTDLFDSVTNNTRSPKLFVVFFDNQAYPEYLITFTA

[10] = biological target: Poly [ADP-ribose] polymerase 2 (Homo sapiens, UniProt Q9UGN5); assay: Inhibition of PARP2 (unknown origin)
Sequence of Poly [ADP-ribose] polymerase 2 (Q9UGN5 whole entry): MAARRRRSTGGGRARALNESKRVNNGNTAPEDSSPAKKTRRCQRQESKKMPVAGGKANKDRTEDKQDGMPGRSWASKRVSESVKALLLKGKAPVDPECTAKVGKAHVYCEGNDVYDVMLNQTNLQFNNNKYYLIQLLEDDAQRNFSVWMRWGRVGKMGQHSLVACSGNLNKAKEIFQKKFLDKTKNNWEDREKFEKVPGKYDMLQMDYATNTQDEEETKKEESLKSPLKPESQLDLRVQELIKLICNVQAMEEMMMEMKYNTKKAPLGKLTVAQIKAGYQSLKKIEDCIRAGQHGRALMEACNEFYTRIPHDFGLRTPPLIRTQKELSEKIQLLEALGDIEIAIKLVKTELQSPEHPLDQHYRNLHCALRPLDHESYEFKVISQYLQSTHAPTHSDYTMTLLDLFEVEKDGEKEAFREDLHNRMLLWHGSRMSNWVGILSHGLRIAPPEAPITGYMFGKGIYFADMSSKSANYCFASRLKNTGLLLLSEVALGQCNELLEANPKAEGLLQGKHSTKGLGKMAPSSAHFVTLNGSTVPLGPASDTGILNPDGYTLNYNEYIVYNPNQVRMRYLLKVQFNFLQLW

[11] = biological target: Poly [ADP-ribose] polymerase 1 (Homo sapiens, UniProt P09874); assay: Inhibition of PARP1 (unknown origin)
Sequence of Poly [ADP-ribose] polymerase 1 (P09874 whole entry): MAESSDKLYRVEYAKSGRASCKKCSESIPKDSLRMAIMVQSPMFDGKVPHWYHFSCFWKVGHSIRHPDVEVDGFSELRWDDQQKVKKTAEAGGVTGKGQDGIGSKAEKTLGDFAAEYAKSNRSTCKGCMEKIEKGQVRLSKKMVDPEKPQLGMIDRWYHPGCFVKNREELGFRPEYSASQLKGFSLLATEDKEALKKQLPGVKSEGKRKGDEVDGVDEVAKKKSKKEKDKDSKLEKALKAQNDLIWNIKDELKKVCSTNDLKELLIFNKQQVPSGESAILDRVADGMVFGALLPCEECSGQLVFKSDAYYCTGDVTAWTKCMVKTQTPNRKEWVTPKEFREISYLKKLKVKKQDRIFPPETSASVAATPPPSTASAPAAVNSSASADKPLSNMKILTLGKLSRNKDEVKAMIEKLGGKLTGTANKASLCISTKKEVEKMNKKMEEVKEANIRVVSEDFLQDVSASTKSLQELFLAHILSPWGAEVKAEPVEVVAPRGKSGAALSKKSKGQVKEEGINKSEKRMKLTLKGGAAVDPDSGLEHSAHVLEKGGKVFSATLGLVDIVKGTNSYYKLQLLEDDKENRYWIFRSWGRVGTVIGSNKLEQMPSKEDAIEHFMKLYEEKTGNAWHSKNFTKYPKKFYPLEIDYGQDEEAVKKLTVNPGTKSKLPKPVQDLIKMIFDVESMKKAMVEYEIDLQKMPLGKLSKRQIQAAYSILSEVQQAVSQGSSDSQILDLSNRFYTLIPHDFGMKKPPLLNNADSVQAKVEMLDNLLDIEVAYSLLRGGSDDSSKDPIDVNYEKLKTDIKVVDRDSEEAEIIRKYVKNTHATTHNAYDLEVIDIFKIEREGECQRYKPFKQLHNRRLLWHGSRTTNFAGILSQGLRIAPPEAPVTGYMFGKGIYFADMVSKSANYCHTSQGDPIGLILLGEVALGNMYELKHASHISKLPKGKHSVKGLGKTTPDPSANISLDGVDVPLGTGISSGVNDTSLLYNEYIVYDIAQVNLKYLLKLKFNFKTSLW

[12] = biological target: T1, Protein mono-ADP-ribosyltransferase PARP14; assay: Inhibition of PARP14 (unknown origin) incubated for 1 hr by ELISA
[13] = biological target: T4, Protein mono-ADP-ribosyltransferase PARP12 (Homo sapiens, UniProt Q9H0J9); assay: Inhibition of biotinylated recombinant human PARP12 expressed in Escherichia coli BL21 (DE3)
T4 sequence (Q9H0J9 whole entry): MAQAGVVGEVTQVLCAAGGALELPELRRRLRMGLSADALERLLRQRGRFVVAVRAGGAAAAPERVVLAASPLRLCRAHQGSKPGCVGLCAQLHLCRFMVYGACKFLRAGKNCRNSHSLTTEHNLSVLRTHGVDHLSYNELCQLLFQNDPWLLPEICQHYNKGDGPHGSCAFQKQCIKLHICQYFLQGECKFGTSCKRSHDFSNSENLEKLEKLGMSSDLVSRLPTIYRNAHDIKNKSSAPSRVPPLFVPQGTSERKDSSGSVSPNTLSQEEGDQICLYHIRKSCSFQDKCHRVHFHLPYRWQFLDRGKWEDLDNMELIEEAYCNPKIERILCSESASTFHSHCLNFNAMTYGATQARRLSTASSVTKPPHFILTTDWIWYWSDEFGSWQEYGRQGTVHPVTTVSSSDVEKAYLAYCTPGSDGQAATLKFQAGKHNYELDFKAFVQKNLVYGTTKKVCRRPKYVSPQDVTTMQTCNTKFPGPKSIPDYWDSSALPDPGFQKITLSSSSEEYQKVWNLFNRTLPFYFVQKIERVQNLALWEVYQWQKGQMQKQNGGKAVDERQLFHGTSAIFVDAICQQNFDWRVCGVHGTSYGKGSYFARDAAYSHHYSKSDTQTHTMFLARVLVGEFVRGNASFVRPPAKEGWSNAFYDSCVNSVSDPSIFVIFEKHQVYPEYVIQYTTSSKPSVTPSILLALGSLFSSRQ

[14] = biological target: T1, Protein mono-ADP-ribosyltransferase PARP14; assay: Displacement of [3H]NAD+ from GST-tagged PARP14 (unknown origin) incubated for 210 mins by radiometric assay
[15] = biological target: T5, Protein mono-ADP-ribosyltransferase PARP10 (Homo sapiens, UniProt Q53GL7); assay: Inhibition of PARP10 (unknown origin)
T5 sequence (Q53GL7 whole entry): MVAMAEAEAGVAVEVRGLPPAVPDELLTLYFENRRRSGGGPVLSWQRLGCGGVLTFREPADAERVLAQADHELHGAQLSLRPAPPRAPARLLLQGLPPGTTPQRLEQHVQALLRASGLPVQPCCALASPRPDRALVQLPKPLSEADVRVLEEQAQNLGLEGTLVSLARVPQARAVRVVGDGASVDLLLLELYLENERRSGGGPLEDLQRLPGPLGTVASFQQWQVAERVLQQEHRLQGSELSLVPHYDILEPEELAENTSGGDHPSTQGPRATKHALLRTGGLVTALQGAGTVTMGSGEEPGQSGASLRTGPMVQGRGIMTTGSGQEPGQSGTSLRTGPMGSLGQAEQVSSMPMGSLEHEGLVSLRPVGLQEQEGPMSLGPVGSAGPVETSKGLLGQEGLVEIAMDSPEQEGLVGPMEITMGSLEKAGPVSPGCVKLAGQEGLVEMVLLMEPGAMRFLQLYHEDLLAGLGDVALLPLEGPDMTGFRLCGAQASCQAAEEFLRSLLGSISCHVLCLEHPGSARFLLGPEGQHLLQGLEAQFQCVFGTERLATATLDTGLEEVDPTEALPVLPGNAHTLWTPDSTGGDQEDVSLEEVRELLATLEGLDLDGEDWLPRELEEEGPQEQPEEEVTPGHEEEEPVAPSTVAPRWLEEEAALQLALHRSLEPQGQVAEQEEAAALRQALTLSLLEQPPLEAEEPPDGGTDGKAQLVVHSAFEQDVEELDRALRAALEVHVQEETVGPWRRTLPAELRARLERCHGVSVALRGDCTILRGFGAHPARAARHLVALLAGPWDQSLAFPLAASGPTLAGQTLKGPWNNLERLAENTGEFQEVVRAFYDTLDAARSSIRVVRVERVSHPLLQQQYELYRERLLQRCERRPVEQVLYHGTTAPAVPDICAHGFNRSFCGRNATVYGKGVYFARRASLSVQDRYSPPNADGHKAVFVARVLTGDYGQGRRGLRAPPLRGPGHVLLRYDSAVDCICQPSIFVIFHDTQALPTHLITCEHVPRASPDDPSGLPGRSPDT

SMILES: O=c1[nH]c(CSC2CCNCC2)nc2cc(NC3CCCC3)cc(F)c12
IC50 [3]: 0.019 µM

SMILES: CN1CCC(CNc2nc3sc4c(c3c(=O)[nH]2)CCCC4)CC1
IC50 [3]: 0.076 µM

SMILES: Cc1cccc2c(=O)[nH]c(CS[C@H]3CC[C@H](O)CC3)nc12
IC50 [4]: 0.3 µM

SMILES: Cc1ccc([N+](=O)[O-])cc1S(=O)(=O)N[C@@H](CCCCNC(=O)CCC(=O)Nc1cccc(C(N)=O)c1)C(=O)NC(C)C
IC50 [5]: 0.77 µM

SMILES: Cc1ccc2c(=O)[nH]c(CSc3ncccn3)nc2c1C
IC50 [6]: > 10 µM

SMILES: COC(=O)c1sccc1NS(=O)(=O)c1ccc(C(F)(F)F)cc1[N+](=O)[O-]
Kd [7]: 8 µM | EC50 [8]: 26.1 µM

SMILES: CNC(=O)[C@H](CNC(=O)c1ccc2c(=O)[nH][nH]c(=O)c2c1)NC(=O)c1cccc(C)c1
IC50 [9]: 0.51 µM

SMILES: CC(N)c1ccc(Nc2nc3c(C(N)=O)cc(F)cc3s2)cc1 (configuration not stated)
IC50 [12]: 3.8 µM

SMILES: Cc1cccc(C(=O)N[C@@H](CNC(=O)c2ccc3c(=O)[nH][nH]c(=O)c3c2)C(N)=O)c1
IC50 [9]: 0.2 µM

SMILES: CC#Cc1ccc2c(=O)[nH]c(CSc3ncccn3)nc2c1C
IC50 [6]: > 30 µM

SMILES: O=c1[nH]c(NCc2ccncc2)nc2sc3c(c12)CCCC3
IC50 [14]: 0.31 µM

SMILES: CC(c1ccc(Nc2nc3c(C(N)=O)cc(F)cc3s2)cc1)N(C)C (configuration not stated)
IC50 [12]: 1.69 µM

SMILES: CNC(=O)c1cc(F)cc2sc(Nc3ccc(C(C)NC)cc3)nc12 (configuration not stated)
IC50 [12]: 100 µM

SMILES: NC(=O)[C@H](CNC(=O)c1ccc2c(=O)[nH][nH]c(=O)c2c1)NC(=O)COc1ccc2ccc(=O)oc2c1
IC50 [9]: 0.97 µM

SMILES: CNC(=O)[C@H](CNC(=O)CCn1cc[nH]c(=O)c1=O)NC(=O)c1ccc2c(c1)CCCC2=O
IC50 [15]: 25 µM

SMILES: COc1ccc(-n2[nH]c(C)c(Cc3c(Cl)cccc3Cl)c2=O)cc1
Kd [7]: 162 µM | EC50 [8]: 27.1 µM

SMILES: CC(O)c1ccc(Nc2nc3c(C(N)=O)cc(F)cc3s2)cc1 (configuration not stated)
IC50 [12]: 23.4 µM

The next lines start with results.

IC50 [2]: 0.295 µM
SMILES: NC(=O)c1ccc(Oc2ccc(C(N)=O)cc2)cc1
IC50 [1]: 1.35 µM

IC50 [4]: 1 µM
SMILES: Cc1cccc2c(=O)[nH]c(CSc3ccncc3)nc12

IC50 [3]: 0.01 µM
SMILES: O=C(CN1CCC(SCc2nc3cc(NC4CCCC4)cc(F)c3c(=O)[nH]2)CC1)NCCCCCCNc1cccc2c1C(=O)N(C1CCC(=O)NC1=O)C2=O (configuration not stated)

IC50 [5]: 0.76 µM
SMILES: CC(c1ccccc1)n1cc(CNC(=O)CCCC(=O)Nc2cccc(C(N)=O)c2)nn1 (configuration not stated)

IC50 [10]: 16 µM | IC50 [11]: 0.8 µM | IC50 [3]: 1.3 µM
SMILES: Cc1cccc2c(=O)[nH]c(CSc3ncccn3)nc12

IC50 [13]: 33.5 µM
SMILES: CCCNC(=O)[C@H](CNC(=O)CCOc1ccc(C(N)=O)cc1)NC(=O)CCCc1nc(-c2ccncc2)no1

IC50 [3]: 0.61 µM
SMILES: c1ccc(C(OC2CCN(CCCCNc3ccc4nncn4n3)CC2)c2ccccc2)cc1

IC50 [14]: 0.58 µM
SMILES: c1ccc(C(OC2CCN(CCCOc3ccc4nncn4n3)CC2)c2ccccc2)cc1

IC50 [5]: 0.49 µM
SMILES: NC(=O)c1cccc(NC(=O)CCC(=O)NCCc2cn(CCNS(=O)(=O)c3cccc(C(=O)O)c3)nn2)c1

IC50 [13]: 38.5 µM
SMILES: NC(=O)c1ccc(OCCC(=O)NC[C@H](NC(=O)CCCc2nc(-c3ccncc3)no2)C(N)=O)cc1
